Test results reported in PubChem BioAssay (NCI).
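How tested: cells in 96-well plates exposed to compound for 48 hours at five concentrations. The concentration for full growth arrest is given as TGI.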

Key:
Experiment in all cases: NCI anticancer screen, dose series, 48 h
EKVX NSCLC = tested on: EKVX NSCLC
PC-3 prostate = tested on: PC-3 prostate
HL-60(TB) leukemia = tested on: HL-60(TB) leukemia
MOLT-4 leukemia = tested on: MOLT-4 leukemia
SK-MEL-2 melanoma = tested on: SK-MEL-2 melanoma
UO-31 renal = tested on: UO-31 renal
UACC-257 melanoma = tested on: UACC-257 melanoma
M14 melanoma = tested on: M14 melanoma
SK-OV-3 ovarian = tested on: SK-OV-3 ovarian
RPMI-8226 leukemia = tested on: RPMI-8226 leukemia

Q: What does the source list for `O=c1c2[nH]cnc2n(-c2ccccc2)c(=S)n1-c1ccccc1`?
A: TGI (EKVX NSCLC): > 100 µM; TGI (PC-3 prostate): > 100 µM; TGI (HL-60(TB) leukemia): > 100 µM; TGI (MOLT-4 leukemia): > 100 µM; TGI (SK-MEL-2 melanoma): > 100 µM; TGI (UO-31 renal): > 100 µM; TGI (UACC-257 melanoma): > 100 µM; TGI (M14 melanoma): > 100 µM; TGI (SK-OV-3 ovarian): > 100 µM; TGI (RPMI-8226 leukemia): > 100 µM

Q: With `C=CCOC(C)(C)C1=CCC(C)CC1` (stereo not given) as the compound, how does the TGI (EKVX NSCLC) read?
A: > 100 µM

Q: What about the TGI (PC-3 prostate) of the same compound?
A: > 100 µM

Q: And the TGI (HL-60(TB) leukemia)?
A: > 100 µM

Q: And the TGI (MOLT-4 leukemia)?
A: > 100 µM

Q: What about the TGI (UO-31 renal) of the same compound?
A: > 100 µM

Q: And the TGI (UACC-257 melanoma)?
A: > 100 µM

Q: What about the TGI (M14 melanoma) of the same compound?
A: > 100 µM

Q: What about the TGI (SK-OV-3 ovarian) of the same compound?
A: > 100 µM

Q: And the TGI (RPMI-8226 leukemia)?
A: > 100 µM

Q: For `Cc1ccc(S(=O)(=O)OCCN(CCOS(=O)(=O)c2ccc(C)cc2)c2ccc(C=O)cc2)cc1`, which TGI (EKVX NSCLC) is on record?
A: 91 µM

Q: And the TGI (PC-3 prostate)?
A: > 100 µM

Q: And the TGI (HL-60(TB) leukemia)?
A: > 100 µM

Q: What about the TGI (MOLT-4 leukemia) of the same compound?
A: > 100 µM

Q: And the TGI (SK-MEL-2 melanoma)?
A: 40.1 µM

Q: What about the TGI (UO-31 renal) of the same compound?
A: 41.3 µM

Q: What about the TGI (UACC-257 melanoma) of the same compound?
A: 61 µM

Q: And the TGI (M14 melanoma)?
A: > 100 µM

Q: What about the TGI (RPMI-8226 leukemia) of the same compound?
A: > 100 µM

Q: `O=C(/C=C\c1ccccc1)Oc1ccc(/C=C2\CCC/C(=C\c3ccc(OC(=O)/C=C\c4ccccc4)cc3)C2=O)cc1` was tested. Which TGI (EKVX NSCLC) did it give?
A: > 100 µM

Q: What about the TGI (PC-3 prostate) of the same compound?
A: > 100 µM

Q: What about the TGI (HL-60(TB) leukemia) of the same compound?
A: > 100 µM

Q: What about the TGI (MOLT-4 leukemia) of the same compound?
A: > 100 µM

Q: What about the TGI (SK-MEL-2 melanoma) of the same compound?
A: > 100 µM

Q: What about the TGI (UO-31 renal) of the same compound?
A: > 100 µM

Q: What about the TGI (UACC-257 melanoma) of the same compound?
A: > 100 µM

Q: What about the TGI (M14 melanoma) of the same compound?
A: > 100 µM

Q: And the TGI (RPMI-8226 leukemia)?
A: > 100 µM

Q: For `COc1cc(C2c3cc4c(cc3[C@@H](Nc3ccc(F)cc3)C3COC[C@H]23)OCO4)cc(OC)c1O` (stereo not given in full), which TGI (EKVX NSCLC) is on record?
A: > 25 µM

Q: And the TGI (PC-3 prostate)?
A: > 25 µM

Q: And the TGI (HL-60(TB) leukemia)?
A: 2.29 µM

Q: What about the TGI (MOLT-4 leukemia) of the same compound?
A: 0.993 µM

Q: And the TGI (UO-31 renal)?
A: 4.57 µM

Q: What about the TGI (UACC-257 melanoma) of the same compound?
A: > 25 µM

Q: And the TGI (M14 melanoma)?
A: > 25 µM

Q: And the TGI (SK-OV-3 ovarian)?
A: > 25 µM

Q: What about the TGI (RPMI-8226 leukemia) of the same compound?
A: 13.1 µM

Q: What does the source list for `Cc1cccc2c1nc1n2C(=O)c2ccccc2-1`?
A: TGI (EKVX NSCLC): > 100 µM; TGI (PC-3 prostate): > 100 µM; TGI (HL-60(TB) leukemia): > 100 µM; TGI (MOLT-4 leukemia): > 100 µM; TGI (SK-MEL-2 melanoma): > 100 µM; TGI (UO-31 renal): > 100 µM; TGI (UACC-257 melanoma): > 100 µM; TGI (M14 melanoma): > 100 µM; TGI (SK-OV-3 ovarian): > 100 µM; TGI (RPMI-8226 leukemia): > 100 µM

Q: What does the source list for `COc1cc(C=O)cc(C=Nc2ccc(Br)cc2)c1O`?
A: TGI (EKVX NSCLC): > 100 µM; TGI (PC-3 prostate): 50.5 µM; TGI (HL-60(TB) leukemia): 56.8 µM; TGI (MOLT-4 leukemia): 62.4 µM; TGI (SK-MEL-2 melanoma): 17.6 µM; TGI (UO-31 renal): 50.6 µM; TGI (UACC-257 melanoma): 34 µM; TGI (M14 melanoma): 14.2 µM; TGI (SK-OV-3 ovarian): 7.83 µM; TGI (RPMI-8226 leukemia): 21.8 µM

Q: `CC(C)Oc1cccc(N2C(CCc3c[nH]c4ccc(Br)cc34)=NS(=O)(=O)c3cnccc32)c1` was tested. Which TGI (EKVX NSCLC) did it give?
A: > 100 µM

Q: What about the TGI (PC-3 prostate) of the same compound?
A: > 100 µM

Q: And the TGI (HL-60(TB) leukemia)?
A: > 100 µM

Q: And the TGI (MOLT-4 leukemia)?
A: 92 µM

Q: And the TGI (SK-MEL-2 melanoma)?
A: > 100 µM

Q: What about the TGI (UO-31 renal) of the same compound?
A: > 100 µM

Q: And the TGI (UACC-257 melanoma)?
A: > 100 µM

Q: And the TGI (M14 melanoma)?
A: > 100 µM

Q: What about the TGI (SK-OV-3 ovarian) of the same compound?
A: > 100 µM

Q: And the TGI (RPMI-8226 leukemia)?
A: > 100 µM

Q: Which results are given for `O=C(N/N=C/c1ccccc1)c1c(F)c(F)c(F)c(F)c1F`?
A: TGI (EKVX NSCLC): > 100 µM; TGI (PC-3 prostate): > 100 µM; TGI (HL-60(TB) leukemia): > 100 µM; TGI (MOLT-4 leukemia): > 100 µM; TGI (SK-MEL-2 melanoma): > 100 µM; TGI (UO-31 renal): > 100 µM; TGI (UACC-257 melanoma): > 100 µM; TGI (M14 melanoma): > 100 µM; TGI (SK-OV-3 ovarian): > 100 µM; TGI (RPMI-8226 leukemia): > 100 µM

Q: Which TGI (EKVX NSCLC) does the source give for `O=C(O)CCCc1ccc2c(c1)C(C(=O)O)CC2` (stereo not given) here?
A: > 100 µM

Q: What about the TGI (PC-3 prostate) of the same compound?
A: > 100 µM

Q: And the TGI (HL-60(TB) leukemia)?
A: > 100 µM

Q: What about the TGI (MOLT-4 leukemia) of the same compound?
A: > 100 µM

Q: What about the TGI (SK-MEL-2 melanoma) of the same compound?
A: > 100 µM

Q: What about the TGI (UO-31 renal) of the same compound?
A: > 100 µM

Q: What about the TGI (UACC-257 melanoma) of the same compound?
A: > 100 µM

Q: And the TGI (M14 melanoma)?
A: > 100 µM

Q: And the TGI (SK-OV-3 ovarian)?
A: > 100 µM

Q: What about the TGI (RPMI-8226 leukemia) of the same compound?
A: > 100 µM

Q: With `BrC1(c2ccccc2)C[n+]2c(-c3ccccc3)cc(-c3ccccc3)cc2-c2ccccc21` (stereo not given) as the compound, how does the TGI (EKVX NSCLC) read?
A: 18.8 µM

Q: What about the TGI (PC-3 prostate) of the same compound?
A: 3.45 µM

Q: And the TGI (HL-60(TB) leukemia)?
A: 0.538 µM

Q: And the TGI (MOLT-4 leukemia)?
A: 6.38 µM

Q: What about the TGI (SK-MEL-2 melanoma) of the same compound?
A: 1.08 µM

Q: And the TGI (UO-31 renal)?
A: 3.31 µM

Q: And the TGI (UACC-257 melanoma)?
A: 2.55 µM

Q: And the TGI (M14 melanoma)?
A: 15.5 µM

Q: What about the TGI (RPMI-8226 leukemia) of the same compound?
A: 1.13 µM
